Assay results: patent US7060405B2, “Naphthoquinone derivative and electrophotographic photoreceptor containing the same” (Samsung Electronics Co., Ltd., priority 2003, dated 2006)

Experiment: solubility in an organic solvent
Type: physicochemical
Conditions: compared to a conventional electron-transporting material
Experimental: In addition, two properties of the naphthoquinone derivative of Formula 2 that was used in Example 1 was measured: solubility in an organic solvent and compatibility with a binder resin.

solubility in an organic solvent: improved
Structure (SMILES): COc1ccc(C(=O)C2=C(c3ccccc3)C(=O)c3ccccc3C2=O)cc1 [Formula 2]
